Data on three molecules can be found in patent US20070207946A1, “Dipeptidyl peptidase IV inhibitors and their uses for lowering blood pressure levels” (priority 2001, published 2007).

Where a name gives a salt, the structure may show the parent alone. Read-outs that look alike come from different tables or passages of the source.

In one series the target is T1, plasma DPIV activity (Rattus norvegicus, UniProt P14740).
T1 construct: from tissue; host or cells: plasma of Wistar rats
Kind of series: DPIV inhibiting activity after intravasal and oral administration to Wistar rats. The note with it: rat. It is filed as in vivo. Here is the method:
Male Wistar rats (Shoe: Wist(Sho)) with a body weight ranging between 250 and 350 g were purchased from Tierzucht Schönwalde (Schönwalde, Germany).
Animals were single-caged under conventional conditions with controlled temperature (22±2° C.) on a 12/12 hours light/dark cycle (light on at 06:00 AM). Standard pelleted chow (ssniff® Soest, Germany) and tap water acidified with HCl were allowed ad libitum.
After ≧one week of adaptation at the housing conditions, catheters were implanted into the carotid artery of Wistar rats under general anaesthesia (i.p. injection of 0.25 ml/kg b.w. Rompun® [2%], BayerVital, Germany and 0.5 ml/kg b.w. Ketamin 10, Atarost GmbH & Co., Twistringen, Germany). The animals were allowed to recover for one week. The catheters were flushed with heparin-saline (100 IU/ml) three times per week. In case of catheter dysfunction, a second catheter was inserted into the contra-lateral carotid artery of the respective rat. After one week of recovery from surgery, this animal was reintegrated into the study. In case of dysfunction of the second catheter, the animal was withdrawn from the study. A new animal was recruited and the experiments were continued in the planned sequence, beginning at least 7 days after catheter implantation.
After overnight fasting, 100 μl samples of heparinised arterial blood were collected at −30, −5, and 0 min. […] In the case of oral administration, an additional volume of 1 ml saline was injected into the arterial catheter. In the case of infra-arterial administration, the catheter was immediately flushed with 30 μl saline and an additional 1 ml of saline was given orally via the feeding tube.
All blood samples were collected into ice cooled Eppendorf tubes (Eppendorf-Netheler-Hinz, Hamburg, Germany) filled with 10 μl 1M sodium citrate buffer (pH 3.0) for plasma DPIV activity measurement. Eppendorf tubes were centrifuged immediately (12000 rpm for 2 min, Hettich Zentrifuge EBA 12, Tuttlingen; Germany): The plasma fractions were stored on ice until analysis or were frozen at −20° C. until analysis. All plasma samples were labelled with the following data:
The assay mixture for determination of plasma DPIV activity consisted of 80 μl reagent and 20 μl plasma sample. […] The DPIV activity was expressed in mU/ml.
All parameters were analysed in a descriptive manner including mean and SD.

Series [1] addresses T2, Prolidase from porcine kidney (Sus scrofa, UniProt A0A5G2QQV1).
T2 construct: Prolidase from porcine kidney (ICN Biomedicals, Eschwege, Germany); purchased ICN Biomedicals, Eschwege, Germany; host or cells: porcine kidney
T2 sequence (A0A5G2QQV1 1-463): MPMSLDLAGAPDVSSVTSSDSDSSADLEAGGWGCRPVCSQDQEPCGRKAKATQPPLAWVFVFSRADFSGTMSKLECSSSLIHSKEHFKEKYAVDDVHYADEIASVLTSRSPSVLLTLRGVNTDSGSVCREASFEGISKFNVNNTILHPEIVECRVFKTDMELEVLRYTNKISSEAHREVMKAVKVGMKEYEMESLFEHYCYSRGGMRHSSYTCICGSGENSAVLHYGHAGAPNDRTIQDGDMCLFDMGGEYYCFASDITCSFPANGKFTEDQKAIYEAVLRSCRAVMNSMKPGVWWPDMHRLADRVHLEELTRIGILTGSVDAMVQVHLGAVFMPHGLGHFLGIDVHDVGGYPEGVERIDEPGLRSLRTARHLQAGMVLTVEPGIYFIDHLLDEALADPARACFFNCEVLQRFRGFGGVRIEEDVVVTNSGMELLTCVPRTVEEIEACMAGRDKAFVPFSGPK
Kind of series: Cross reacting enzymes - prolidase. It is filed as biochemical. To be noted: substrate Ile-Pro-OH, pH 7.6, read-out: IC50 against prolidase. Here is the method: Prolidase (EC 3.4.13.9) was first described by Bergmann & Fruton (Bergmann, M. & Fruton, J S, 1937, J. Biol. Chem. 189-202). Prolidase releases the N-terminal amino acid from Xaa-Pro dipeptides and has a pH optimum between 6 and 9.
Prolidase from porcine kidney (ICN Biomedicals, Eschwege, Germany) was solved (1 mg/ml) in assay buffer (20 mM NH4(CH3COO)2, 3 mM MnCl2, pH 7.6). In order to get a fully active enzyme the solution was incubated for 60 min at room temperature.
450 μl glutaminyl pyrrolidine or glutaminyl thiazolidine in an concentration range of 5*10^−3 M-5*10^−7 M were admixed with 500 μl buffer solution (20 mM NH4(CH3COO)2, pH 7.6) and 250 μl Ile-Pro-OH (0.5 mM in the assay, mixture). The assay mixture was pre-incubated at 30° C. for 5 min. After pre-incubation, 75 μl Prolidase (1:10 diluted in assay buffer) were added and measurement was performed at 30° C. and λ=220 nm for 20 min using a UV/Vis photometer, UV1 (Thermo Spectronic, Cambridge, UK).
The IC 50-values were calculated using Graphit 4.0.15 (Erithacus Software, Ltd., UK).

Series [2] in a line: In vivo inactivation of glutaminyl thiazolidine after oral administration to Wistar rats. To be noted: plasma LC/MS. Here is the method:
Glutaminyl thiazolidine was administered to Wistar rats orally as described in example 9.
After application of placebo or glutaminyl thiazolidine, arterial blood samples were taken at 2.5, 5, 7.5, 10, 15, 20, 40, 60 and 120 min from the carotid catheter of the conscious unrestrained rats to determine the formation of degradation products of glutaminyl thiazolidine.
For analysis, simple solid phase extraction procedure on C18 cartridges was used to isolate the compounds of interest from the plasma. The extracts were analysed using reversed-phase liquid chromatography on Lichrospher 60 RP Select B column hyphenated with tandem mass spectrometry operating in the APCI positive mode. An internal standard method was used for quantification.

Another series is described as follows: Circulating half-life. The note with it: 18 hours following dosing. Type of series: in vivo. Here is the method: (§1) Every four weeks from the start of the experiment, an oral glucose tolerance test (OGTT) was performed: animals were fasted for 18 hours following the 1700 h dosing and administered 1 g/kg glucose orally.
The subject of series [3] is fatty (fa/fa) VDF Zucker rats. As to the kind of experiment: Chronic oral treatment of fatty Zucker rats - fasting blood glucose. It is filed as in vivo, rat. To be noted: 10 mg/kg oral gavage twice daily, 12 weeks. As to the method:
(§2) Animals were housed singly, on a 12 hour light/dark cycle (lights on at 6 am) and allowed access to standard rat food, and water ad libitum.
Every two days, body weight, morning and evening blood glucose, and food and water intake were assessed. Blood samples for glucose determination were acquired from tail bleeds, and measured using a SureStep glucose analyzer (Lifescan Canada Ltd., Burnaby).
as §1

The test system of the next series is F344 rats. Kind of series: Chronic intragastric infusion via osmotic minipumps over two weeks - blood pressure. It is filed as in vivo, rat. Here is the method:
Reduced expression of the ectopeptidase DPIV and lack of DPIV-like activity in mutant F344 rats lacking DPIV enzymic activity and expression results in a lowered blood pressure. Mutant F344 substrains lacking DPIV enzymic activity and wild-type-like F344 were tested.

Series [4] deals with fatty (fa/fa) VDF Zucker rats. Kind of series: Chronic oral treatment of fatty Zucker rats - systolic blood pressure (tail-cuff). To be noted: 10 mg/kg oral gavage twice daily. Type of series: in vivo, rat. Here is the method: as §2
Systolic blood pressure was measured weekly using the tail-cuff procedure.

The subject of series [5] is DPIV and DPIV-like enzymatic activity. Kind of series: Inhibition of the DPIV-catalyzed hydrolysis of the incretins GIP1-42 and GLP-17-36 in vitro (pooled human serum, MALDI-TOF). Type of series: biochemical. The note with it: 20 mM inhibitor; 30 mM peptide; 20% pooled serum; pH 7.6; 30° C.; 24 hours. An excerpt: It is possible to suppress the in vitro hydrolysis of incretins caused by DPIV and DPIV-like enzymatic activity using purified enzyme or pooled human serum (FIG. 1).
Samples were cocrystallized using 2′,6′-dihydroxy-acetophenon as matrix and analyzed by MALDI-TOF-mass spectrometry. Spectra (FIG. 1) display accumulations of 250 single laser shots per sample.
In the control assays containing no inhibitor the incretins were almost completely degraded (FIGS. 1b and 1c, both bottom spectra).

The next series relates to Wistar-rats. As to the kind of experiment: Insulin and blood glucose responses to glucose after i.v. administration of inhibitor. Type of series: in vivo, rat.
The target of series [6] is T3, PepT1 (Oryctolagus cuniculus, UniProt P36836).
T3 sequence (P36836 1-707): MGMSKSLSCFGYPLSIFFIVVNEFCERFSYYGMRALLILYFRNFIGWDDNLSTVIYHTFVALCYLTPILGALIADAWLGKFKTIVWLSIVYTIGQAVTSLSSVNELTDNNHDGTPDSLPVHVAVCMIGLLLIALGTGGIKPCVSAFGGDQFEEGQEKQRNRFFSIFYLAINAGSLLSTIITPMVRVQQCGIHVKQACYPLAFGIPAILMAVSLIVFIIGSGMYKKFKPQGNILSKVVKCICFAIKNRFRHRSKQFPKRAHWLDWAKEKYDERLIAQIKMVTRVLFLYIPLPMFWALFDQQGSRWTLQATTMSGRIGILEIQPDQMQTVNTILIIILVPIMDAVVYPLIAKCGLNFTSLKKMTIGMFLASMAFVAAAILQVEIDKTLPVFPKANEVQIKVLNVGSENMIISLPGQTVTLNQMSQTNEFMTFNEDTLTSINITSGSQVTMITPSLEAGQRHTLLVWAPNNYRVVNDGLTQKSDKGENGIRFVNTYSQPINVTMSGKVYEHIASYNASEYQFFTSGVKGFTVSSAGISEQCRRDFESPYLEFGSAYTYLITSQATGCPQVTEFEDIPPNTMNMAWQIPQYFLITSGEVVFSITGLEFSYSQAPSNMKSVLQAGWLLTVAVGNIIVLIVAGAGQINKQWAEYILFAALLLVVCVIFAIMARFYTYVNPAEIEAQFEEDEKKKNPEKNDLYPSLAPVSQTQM
Kind of series: Inhibition of binding of 3H-D-Phe-Ala to PepT1-expressing P. pastoris cells. The note with it: read-out: EC50: concentration inhibiting the binding of 3H-D-Phe-Ala to PepT1-expressing P. pastoris cells by 50%. The source says: (§3) Side chain-modified glutamyl thiazolidines having a structure H-Glu(X)-Thia were synthesised, with polyethylene glycol or glycine oligomers of various chain lengths being used as X (see Method A of example for description of synthesis). The binding characteristics of those derivatives and their transportability by the peptide transporter PepT1 were investigated.

Series [7] has as its target T3, PepT1. Kind of series: Transport characteristics at PepT1-expressing oocytes of X. leavis, two-electrode voltage clamp. Type of series: cell-based.
Text: as §3
A general note: Two-electrode voltage clamp holds a large cell at a set potential and records current.

T1 sequence (P14740 38-767 limits assumed): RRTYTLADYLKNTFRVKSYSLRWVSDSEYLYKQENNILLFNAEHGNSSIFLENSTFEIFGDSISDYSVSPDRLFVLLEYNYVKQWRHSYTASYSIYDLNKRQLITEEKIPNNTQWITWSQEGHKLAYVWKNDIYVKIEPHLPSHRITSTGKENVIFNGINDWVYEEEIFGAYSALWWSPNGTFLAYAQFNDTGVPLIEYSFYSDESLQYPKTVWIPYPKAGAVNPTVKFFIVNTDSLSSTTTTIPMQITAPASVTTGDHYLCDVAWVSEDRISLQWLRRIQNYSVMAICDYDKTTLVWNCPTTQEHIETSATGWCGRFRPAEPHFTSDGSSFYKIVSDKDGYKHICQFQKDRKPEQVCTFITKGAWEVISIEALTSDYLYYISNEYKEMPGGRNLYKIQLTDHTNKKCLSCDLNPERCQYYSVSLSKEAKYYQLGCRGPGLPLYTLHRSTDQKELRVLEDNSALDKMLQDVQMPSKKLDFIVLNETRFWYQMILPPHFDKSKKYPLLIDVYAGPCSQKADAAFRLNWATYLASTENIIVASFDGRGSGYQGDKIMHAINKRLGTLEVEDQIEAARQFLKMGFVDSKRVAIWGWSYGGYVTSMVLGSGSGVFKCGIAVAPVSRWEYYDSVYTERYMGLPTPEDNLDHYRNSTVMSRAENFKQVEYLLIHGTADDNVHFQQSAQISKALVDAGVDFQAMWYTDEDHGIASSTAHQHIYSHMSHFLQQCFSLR
Protocol for Wistar-rats: The test group additionally obtained an infusion of the inhibitor of 0.75 M/min over 30 min experimental time (*). The control group received during the same time interval an infusion of inhibitor-free 0.9% saline solution. At starting time t=0 all animals were administered an i.d. glucose dose of 1 g/kg 40% dextrose solution (w/v). Blood samples were collected of all test animals in 10 min time intervals. Glucose was analyzed using whole blood (Lifescan One Touch II analyzer) while DPIV-activity and insulin concentration were analyzed in plasma. […] All data are presented as mean+/−s.e.m.

Usually inhibition stands for the relative decrease from the control value, in per cent. By IC50 is commonly meant the point on the concentration scale where inhibition reaches its midpoint. In the case of `NC(=O)CCC(N)C(=O)N1CCSC1` (centres unmarked) [Gln-Thia, glutaminyl thiazolidine], the inhibition at 100 mg/kg at plasma DPIV activity (iv, intra-vasal (intra-arterial) route, read-out: in vivo DPIV-inhibition at tmax, i.v.) came out at 88%. In addition, the inhibition at 100 mg/kg on plasma DPIV activity (oral, read-out: in vivo DPIV-inhibition at tmax, p.o.) was 71%. Moreover, in [1], the IC50 is greater than 3000 µM. Also, in series [2], the “degradation of the compound in vivo” value is “degradation of the compound was found” and the degradation product result was “pyroglutaminyl thiazolidine”.
On to `CC[C@H](C)[C@H](N)C(=O)N1CCSC1` [Isoleucyl thiazolidine fumarate], for which the “number of circulating half-lives equivalent to the 18 hours fasting period” value in “Circulating half-life” was roughly 12 circulating half-lives. Moreover, the fasting blood glucose result in series [3] is “dramatic reduction and almost normalization”. Besides, the blood pressure result in the series with F344 rats is reported as “dose-dependently reduced”. Besides, the systolic blood pressure entry in series [4] is listed as “stabilization”.
Turning to `CCC(C)C(N)C(=O)N1CCSC1` (centres unmarked) [isoleucyl thiazolidine], the “suppression of the enzyme-catalyzed hydrolysis of GIP1-42 and GLP-17-36” value in series [5] was “complete suppression”. The “circulating glucose concentration after intraduodenal (i.d.) glucose” value in the series with Wistar-rats (0.1 mg per kg, versus untreated controls) is “more rapid reduction”. The “effect on circulating glucose after i.v. administration of the same amount of glucose” value in the series with Wistar-rats (inhibitor-treated) is “no comparable effect”. In addition, on PepT1 [6], the EC50 came to 980 µM. Moreover, the “Imax, inward currents generated by the transport” value on PepT1 [7] is reported as 25 ± 8 nA.
